Assay results taken from patent US20250049800A1, “VCP/p97 INHIBITOR FOR THE TREATMENT OF CANCER” (CASI Pharmaceuticals, Inc., priority 2021, published 2025).
Where two headings read alike, the source gives them in different places.

Key:
[1] = test system: MOML-13 (Human Acute Myeloid Leukemia cell line); assay: Combination Index (Chou-Talalay) of Compound 1 with second therapeutic agents; assay type: cell-based; conditions: for Combination Index: agent in combination with Compound 1, CI scores across all 3 ratios averaged, MOML-13; for effect of the combination with Compound 1: MOML-13 (BRCA2 mutant, FLT3 heterozygous)
Experimental: (§1) Each combination was tested in 3 cell lines: MOML-13 (Human Acute Myeloid Leukemia cell line; Addex Bio), MV-4-11 (Human B Myelomoncytic Leukemia cell line; ATCC), and OCI-AML-3 (Human Acute Myeloid Leukemia cell line).
(§2) Within this range, 20 dose levels were tested for each combination, with each response determined in duplicate. […] The actual drug concentrations in the ratios were determined from the IC50 values obtained for each individual drug.
(§3) Raw data was analyzed using Graph Pad Prism, four parameter logistic fits, and Chou-Talalay drug combination analyses. […] For data points with Fe<0, the fractional effect was set to 0.001. Data points with Fe>0.99 or <0.01 were omitted from the Chou-Talalay analysis because the Chou-Talalay analysis fits data to the Log of the fractional effect, with equal weight applied across the range of effect, such that the high and low end of the dose response, very small changes in effect within the range of experimental error erroneously skew the outcome of the model fit.
(§4) A Combination Index (CI) vs Fractional Effect plot showing the actual combination index plotted vs Fractional effect value was plotted for each combination dose. In this analysis, CI=1 represents additive activity, CI>1 represent less than additive activity (often referred to as antagonism) and CI<1=synergistic activity (better than additive).

[2] = test system: MV-4-11 (Human B Myelomoncytic Leukemia cell line); assay: as above; assay type: cell-based; conditions: for Combination Index: agent in combination with Compound 1, CI scores across all 3 ratios averaged, MV-4-11; for effect of the combination with Compound 1: MV-4-11 (FLT3 homozygous mutant)
Experimental: as §1, §2, §3, §4

[3] = test system: OCI-AML-3 (Human Acute Myeloid Leukemia cell line); assay: as above; assay type: cell-based; conditions: for Combination Index: agent in combination with Compound 1, CI scores across all 3 ratios averaged, OCI-AML-3; for effect of the combination with Compound 1: OCI-AML-3 (FLT3 wildtype)
Experimental: as §1, §2, §3, §4

HL-60 cell line = assay: Cell Titer-Glo viability, fixed agent + dose response agent combinations; assay type: cell-based, human; conditions: Homo sapiens
Experimental: (§5) The additional therapeutic agents for this example were azacitidine (Cayman Chemical Cat No. 11164), decitabine (Sigma Cat No. A3656) and venetoclax (InvivoChem Cat. No. V0001).
(§6) Cell Culture: Three human acute myeloid leukemia tumor cell lines were used in this study: HL60, MV4;11 and MOLM-13. HL60 and MV4;11 were grown in IMDM base media with 20% and 10% FBS, respectively. MOLM-13 was grown in RPMI 1640 base media with 20% FBS. All culture media contained 2 mM glutamine, 100 units/mL sodium penicillin G, […] gentamicin, and 100 µg/mL streptomycin sulfate. The tumor cells were cultured in tissue culture flasks in a humidified incubator at 37° C., in an atmosphere of 5% CO2 and 95% air. Assay: Tumor cells were seeded in duplicate in a volume of 100 µL/well of media into 96-well micro-culture plates at initial densities low enough to allow for several population doublings (typically three to five) during the indicated incubation period. After a 24 hour incubation, test agents were added to each well. After 72 hours of culture with test articles, cell viability was determined using the Cell Titer-Glo® (Promega G7571) assay. Briefly, Cell Titer-Glo® (Promega G7571) reagents were equilibrated at room temperature for 30 minutes; 100 μL per well was added at endpoint (72 hours). Plates were gently shaken for two minutes and then incubated at room temperature for ten minutes prior to reading luminescence on the BMG Clariostar Plus microplate reader.
(§7) An IC50 ratio for each combination was calculated from the ratio of the combination IC50 as compared to the applicable no fixed agent (vehicle) control.

MOML-13 cell line = assay: as above; assay type: cell-based, human; conditions: Homo sapiens
Experimental: as §5, §6, §7

MV4; 11 cell line = assay: as above; assay type: cell-based, human; conditions: Homo sapiens
Experimental: as §5, §6, §7

[4] = CB-5083 tested previously in subjects; cited from earlier work
Capan-1 (Pancreas) = assay: Cell Titer-Glo viability: single agent IC50 and Compound 1 + PARP inhibitor matrix (Bliss); assay type: cell-based; conditions: for IC50: single agent, read-out: Absolute IC50; for # in matrix with Bliss >5: 6×6 matrix of PARP inhibitor with Compound 1
Experimental: (§8) The PARP inhibitors used for the study were talazoparib, olaparib and niraparib. […] was used as a reference control. […] For each drug agent on its own, IC50 values in each cell line were determined. Interactions of the combinations of Compound 1 and each PARP inhibitor was assessed as follows: […] Cisplatin and culture media were used as positive and negative control, respectively. The combination activities were assessed using CrownSyn software to determine synergy scores by Bliss Independence and Loewe additivity methods. […] Synergy scores calculated by both Bliss independence model and Loewe additivity model (see Greco, […]., Poch, G., Suhnel, J., Kundi, M., & Bodeker, W. (1992). Consensus on concepts and terminology for combined-action assessment: the […] agreement. […] Without being bound by theory, the Bliss independence model is often applied to asses synergy for non-interacting drugs that elicit their responses independently, e.g., by targeting separate pathways, whereas the Loewe additivity model may be more compatible where both drugs have similar modes of action on the same targets or pathways.

DU4475 (Breast) = assay: as above; assay type: cell-based; conditions: for IC50: single agent, read-out: Absolute IC50; for # in matrix with Bliss >5: 6×6 matrix of PARP inhibitor with Compound 1
Experimental: as §8

[5] = test system: DoTc2 4510 (Uterus/Cervix); assay: as above; assay type: cell-based; conditions: for IC50: single agent, read-out: Absolute IC50; for # in matrix with Bliss >5: 6×6 matrix of PARP inhibitor with Compound 1
Experimental: as §8

HCC1395 (Breast) = assay: as above; assay type: cell-based; conditions: for IC50: single agent, read-out: Absolute IC50; for # in matrix with Bliss >5: 6×6 matrix of PARP inhibitor with Compound 1
Experimental: as §8

HCC1806 (Breast) = assay: as above; assay type: cell-based; conditions: for IC50: single agent, read-out: Absolute IC50; for # in matrix with Bliss >5: 6×6 matrix of PARP inhibitor with Compound 1
Experimental: as §8

HCC1937 (Breast) = assay: as above; assay type: cell-based; conditions: for IC50: single agent, read-out: Absolute IC50; for # in matrix with Bliss >5: 6×6 matrix of PARP inhibitor with Compound 1
Experimental: as §8

IGR-OV1 (Ovary) = assay: as above; assay type: cell-based; conditions: for IC50: single agent, read-out: Absolute IC50; for # in matrix with Bliss >5: 6×6 matrix of PARP inhibitor with Compound 1
Experimental: as §8

MX-1 (Breast) = assay: as above; assay type: cell-based; conditions: for IC50: single agent, read-out: Absolute IC50; for # in matrix with Bliss >5: 6×6 matrix of PARP inhibitor with Compound 1
Experimental: as §8

OVCAR-8 (Ovary) = assay: as above; assay type: cell-based; conditions: for IC50: single agent, read-out: Absolute IC50; for # in matrix with Bliss >5: 6×6 matrix of PARP inhibitor with Compound 1
Experimental: as §8

SK-OV-3 (Ovary) = assay: as above; assay type: cell-based; conditions: for IC50: single agent, read-out: Absolute IC50; for # in matrix with Bliss >5: 6×6 matrix of PARP inhibitor with Compound 1
Experimental: as §8

COCC1(CO)C(=O)C2CCN1CC2 (stereo not shown) [APR-246]
Combination Index [1]: 1.228
Combination Index [2]: 1.285
Combination Index [3]: 1.279

CN(C)CCCOc1ccc(-c2ccc3ncc4c(c3c2)n(C2CCOCC2)c(=O)n4C)cn1 [AZDO156]
Combination Index [1]: 1.293
Combination Index [2]: 1.122
Combination Index [3]: 1.159

Nc1ncn([C@@H]2O[C@H](CO)[C@@H](O)[C@H]2O)c(=O)n1 [Azacitidine, azacitidine, reference compound]
IC50 (HL-60 cell line; HL-60, HL-60, fixed agent Compound 1 - 210 nM, read-out: IC50): 1.96 µM
IC50 (MOML-13 cell line; MOML-13, fixed agent Compound 1 - 75 nM, read-out: IC50): 0.125 µM
IC50 (MV4; 11 cell line; MV4-11, MV4, 11, fixed agent Compound 1 - 185 nM, read-out: IC50): 0.11 µM

Cc1cc2c(C(N)=O)cccc2n1-c1nc2c(c(NCc3ccccc3)n1)COCC2 [CB-5083, 1-[7,8-dihydro-4-[(phenylmethyl)amino]-5H-pyrano[4,3-d]pyrimidin-2-yl]-2-methyl-1H-indole-4-carboxamide]
visual adverse events [4]: symptoms of visual impairment or other visual adverse events

N.N.[Cl][Pt][Cl] [Cisplatin]
IC50 (Capan-1 (Pancreas)): 1.68 µM
IC50 (DU4475 (Breast)): 1.6 µM
IC50 [5]: 10.2 µM
IC50 (HCC1395 (Breast)): 4.75 µM
IC50 (HCC1806 (Breast)): 3.24 µM
IC50 (HCC1937 (Breast)): 12.1 µM
IC50 (IGR-OV1 (Ovary)): 1.45 µM
IC50 (MX-1 (Breast)): 6.6 µM
IC50 (OVCAR-8 (Ovary)): 9.22 µM
IC50 (SK-OV-3 (Ovary)): 8.3 µM

Nc1ncn([C@H]2C[C@H](O)[C@@H](CO)O2)c(=O)n1 [Decitabine, decitabine, reference compound]
IC50 (HL-60 cell line; HL-60): 4.03 µM
IC50 (HL-60 cell line; HL-60, 72 h): 5.29 µM
IC50 (MOML-13 cell line): 0.0065 µM
IC50 (MOML-13 cell line; 72 h): 0.0108 µM
IC50 (MV4; 11 cell line; MV4-11): 0.0071 µM
IC50 (MV4; 11 cell line; MV4-11, 72 h): 0.39 µM

CC(C)C[C@H](NC(=O)CNC(=O)c1cc(Cl)ccc1Cl)B(O)O [Ixazomib]
effect of the combination with Compound 1 [1]: antagonistic
Combination Index [1]: 1.413
effect of the combination with Compound 1 [2]: antagonistic
Combination Index [2]: 1.546
effect of the combination with Compound 1 [3]: antagonistic
Combination Index [3]: 1.438

NC(=O)c1cccc2cn(-c3ccc([C@@H]4CCCNC4)cc3)nc12 [Niraparib, niraparib]
# in matrix with Bliss >5 (Capan-1 (Pancreas)): 2/36
IC50 (Capan-1 (Pancreas); Homo sapiens, 72 h): > 5 µM
# in matrix with Bliss >5 (DU4475 (Breast)): 10/36
IC50 (DU4475 (Breast); Homo sapiens, DU-4475, 72 h): 1.02 µM
# in matrix with Bliss >5 [5]: 6/36
# in matrix with Bliss >5 (HCC1395 (Breast)): 6/36
IC50 (HCC1395 (Breast); Homo sapiens, 72 h): > 5 µM
# in matrix with Bliss >5 (HCC1806 (Breast)): 9/36
IC50 (HCC1806 (Breast); Homo sapiens, 72 h): > 5 µM
# in matrix with Bliss >5 (HCC1937 (Breast)): 15/36
# in matrix with Bliss >5 (IGR-OV1 (Ovary)): 7/36
IC50 (IGR-OV1 (Ovary); Homo sapiens, IGROV-1, 72 h): > 5 µM
# in matrix with Bliss >5 (MX-1 (Breast)): 4/36
# in matrix with Bliss >5 (OVCAR-8 (Ovary)): 9/36
IC50 (OVCAR-8 (Ovary); Homo sapiens, 72 h): > 5 µM
# in matrix with Bliss >5 (SK-OV-3 (Ovary)): 8/36

O=C(c1cc(Cc2n[nH]c(=O)c3ccccc23)ccc1F)N1CCN(C(=O)C2CC2)CC1 [Olaparib, olaparib]
# in matrix with Bliss >5 (Capan-1 (Pancreas)): 4/36
IC50 (Capan-1 (Pancreas); Homo sapiens, 72 h): > 5 µM
# in matrix with Bliss >5 (DU4475 (Breast)): 13/36
IC50 (DU4475 (Breast); Homo sapiens, DU-4475, 72 h): 4.52 µM
# in matrix with Bliss >5 [5]: 5/36
IC50 ([5]; Homo sapiens): > 5 µM
# in matrix with Bliss >5 (HCC1395 (Breast)): 8/36
IC50 (HCC1395 (Breast); Homo sapiens, 72 h): > 5 µM
# in matrix with Bliss >5 (HCC1806 (Breast)): 17/36
IC50 (HCC1806 (Breast); Homo sapiens, 72 h): > 5 µM
# in matrix with Bliss >5 (HCC1937 (Breast)): 23/36
# in matrix with Bliss >5 (IGR-OV1 (Ovary)): 12/36
IC50 (IGR-OV1 (Ovary); Homo sapiens, IGROV-1, 72 h): > 5 µM
# in matrix with Bliss >5 (MX-1 (Breast)): 3/36
IC50 (MX-1 (Breast)): > 5 µM
# in matrix with Bliss >5 (OVCAR-8 (Ovary)): 8/36
IC50 (OVCAR-8 (Ovary); Homo sapiens, 72 h): > 5 µM
# in matrix with Bliss >5 (SK-OV-3 (Ovary)): 10/36

Cn1ncnc1[C@H]1c2n[nH]c(=O)c3cc(F)cc(c23)N[C@@H]1c1ccc(F)cc1 [Talazoparib]
effect of the combination with Compound 1 [1]: strong synergy
# in matrix with Bliss >5 (Capan-1 (Pancreas)): 4/36
IC50 (Capan-1 (Pancreas); Homo sapiens, 72 h): 2.64 µM
# in matrix with Bliss >5 (DU4475 (Breast)): 15/36
IC50 (DU4475 (Breast); Homo sapiens, DU-4475, 72 h): 0.03 µM
# in matrix with Bliss >5 [5]: 5/36
# in matrix with Bliss >5 (HCC1395 (Breast)): 0/36
IC50 (HCC1395 (Breast); Homo sapiens, 72 h): > 5 µM
# in matrix with Bliss >5 (HCC1806 (Breast)): 3/36
IC50 (HCC1806 (Breast); Homo sapiens, 72 h): > 5 µM
# in matrix with Bliss >5 (HCC1937 (Breast)): 8/36
IC50 (HCC1937 (Breast); Homo sapiens): > 5 µM
# in matrix with Bliss >5 (IGR-OV1 (Ovary)): 7/36
# in matrix with Bliss >5 (MX-1 (Breast)): 0/36
# in matrix with Bliss >5 (OVCAR-8 (Ovary)): 6/36
IC50 (OVCAR-8 (Ovary); Homo sapiens, 72 h): > 5 µM
# in matrix with Bliss >5 (SK-OV-3 (Ovary)): 13/36
IC50 (SK-OV-3 (Ovary); Homo sapiens): > 5 µM

CC1(C)CCC(CN2CCN(c3ccc(C(=O)NS(=O)(=O)c4ccc(NCC5CCOCC5)c([N+](=O)[O-])c4)c(Oc4cnc5[nH]ccc5c4)c3)CC2)=C(c2ccc(Cl)cc2)C1 [Venetoclax]
Combination Index [1]: 0.730

Nc1ccn([C@@H]2O[C@H](CO)[C@@H](O)[C@@H]2O)c(=O)n1 [cytarabine]
effect of the combination with Compound 1 [1]: additive effects
effect of the combination with Compound 1 [2]: additive effects
effect of the combination with Compound 1 [3]: additive effects
